# Tests used:
# ECHOR = experiment: In-water applied greenhouse weed control, transplanted paddy rice system; assay type: in vivo, Echinochloa oryzoides (Ard.) Fritsch; conditions: in-water application
# Description: (§1) Weed seeds or nutlets of the desired test plant species were planted in puddled soil (mud) prepared by mixing a shredded, non-sterilized mineral soil (50.5 percent silt, 25.5 percent clay, and 24 percent sand, with a pH of about 7.6 and an organic matter content of about 2.9 percent) and water at a 1:1 volumetric ratio. The prepared mud was dispensed in 365 mL aliquots into 16-ounce (oz.) non-perforated plastic pots with a surface area of 86.59 square centimeters (cm^2) leaving a headspace of 3 centimeters (cm) in each pot. Mud was allowed to dry overnight prior to planting or transplanting. Rice seeds were planted in Sun Gro MetroMix® 306 planting mixture, which typically has a pH of 6.0 to 6.8 and an organic matter content of about 30 percent, in plastic plug trays. Seedlings at the second or third leaf stage of growth were transplanted into 840 mL of mud contained in 32-oz. non-perforated plastic pots with a surface area of 86.59 cm^2 4 days prior to herbicide application. The paddy was created by filling the headspace of the pots with 2.5 to 3 cm of water. When required to ensure good germination and healthy plants, a fungicide treatment and/or other chemical or physical treatment was applied. The plants were grown for 4-22 days in a greenhouse with an approximate 14 h photoperiod which was maintained at about 29° C. during the day and 26° C. during the night. Nutrients were added as Osmocote® (19:6:12, N:P:K+ minor nutrients) at 2 g per 16-oz. pot and 4 g per 32-oz. pot. Water was added on a regular basis to maintain the paddy flood, and supplemental lighting was provided with overhead metal halide 1000-Watt lamps as necessary. The plants were employed for testing when they reached the first through fourth true leaf stage.
# (§2) Treatments consisted of the acid or esters of 4-amino-3-chloro-5-fluoro-6-(4-chloro-2-fluoro-3-methoxy-phenyl)pyridine-2-carboxylic acid (compound A) each formulated as an SC and various herbicidal components alone and in combination. Forms of compound A were applied on an acid equivalent basis.
# (§3) Other herbicidal components were applied on an active ingredient basis and included daimuron formulated as an EC, bromobutide (technical grade material), and oxaziclomefone (technical grade material).
# (§4) Treatment requirements for each compound or herbicidal component were calculated based upon the rates being tested, the concentration of active ingredient or acid equivalent in the formulation, an application volume of 2 mL per component per pot, and an application area of 86.59 cm^2 per pot.
# (§5) For formulated compounds, a measured amount was placed in an individual 100 or 200 mL glass vial and was dissolved in a volume of 1.25% (v/v) Agri-Dex® crop oil concentrate to obtain application solutions.
# (§6) For technical grade compounds, a weighed amount was placed in an individual 100 to 200 mL glass vial and was dissolved in a volume of acetone to obtain concentrated stock solutions. […] The concentrated stock solutions obtained were diluted with an equivalent volume of an aqueous mixture containing 2.5% (v/v) crop oil concentrate so that the final application solutions contained 1.25% (v/v) crop oil concentrate.
# (§7) Applications were made by injecting, with a pipetter, appropriate amounts of the application solutions, individually and sequentially, into the aqueous layer of the paddy. Control plants were treated in the same manner with the solvent blank. Applications were made so that all treated plant material received the same concentrations of acetone and crop oil concentrate.
# (§8) The treated plants and control plants were placed in a greenhouse as described above and water was added as needed to maintain a paddy flood. After approximately 3 weeks the condition of the test plants as compared with that of the untreated plants was determined visually and scored on a scale of 0 to 100 percent where 0 corresponds to no injury or growth inhibition and 100 corresponds to complete kill. […]
# FIMMI = experiment: as above; assay type: in vivo, Fimbristylis miliacea (L.) Vahl; conditions: in-water application
# Description: as §1, §2, §3, §4, §5, §6, §7, §8
# [1] = Compound A Benzyl Ester 8 gae/ha alone
# [2] = Compound A Benzyl Ester 16 gae/ha alone
# [3] = Compound A Benzyl Ester 32 gae/ha alone
compound,measurement,setting,value
COc1c(Cl)ccc(-c2nc(C(=O)OCc3ccccc3)c(Cl)c(N)c2F)c1F [Compound A Benzyl Ester],Visual Weed Control (%) - 21 DAA ECHOR Obs,ECHOR; [1],8%
same,Visual Weed Control (%) - 21 DAA ECHOR Obs,ECHOR; [2],5%
same,Visual Weed Control (%) - 21 DAA ECHOR Obs,ECHOR; [3],13%
same,Visual Weed Control (%) - 19 DAA FIMMI Obs,FIMMI; [1],0%
same,Visual Weed Control (%) - 21 DAA FIMMI Obs,FIMMI; [1],15%
same,Visual Weed Control (%) - 19 DAA FIMMI Obs,FIMMI; [2],0%
same,Visual Weed Control (%) - 21 DAA FIMMI Obs,FIMMI; [2],65%
same,Visual Weed Control (%) - 21 DAA FIMMI Obs,FIMMI; [3],75%
